Patent US20230172206A1 (BASF SE, priority 2020, published 2023)

Experiments:
[1] = tested on: Phakopsora pachyrhizi (F129L); experiment: Protective control of soybean rust on soybeans (PHAKPA P2); format: in vivo; details: F129L isolate; for % PHAKPA (F129L) Disease level P2 at 4 ppm: protective P2, 4 ppm; for % PHAKPA (F129L) Disease level P2 at 16 ppm: protective P2, 16 ppm
[2] = tested on: Phakopsora pachyrhizi (F129L); experiment: Protective control of soybean rust on soybeans (PHAKPA P6); format: in vivo; details: F129L isolate; for % PHAKPA (F129L) Disease level P6 at 4 ppm: protective P6, 4 ppm; for % PHAKPA (F129L) Disease level P6 at 16 ppm: protective P6, 16 ppm

SMILES | % PHAKPA (F129L) Disease level P2 at 4 ppm [1] [%] | % PHAKPA (F129L) Disease level P2 at 16 ppm [1] [%] | % PHAKPA (F129L) Disease level P6 at 4 ppm [2] [%] | % PHAKPA (F129L) Disease level P6 at 16 ppm [2] [%]
CNC(=O)/C(=N/OC)c1cccc(C)c1CO/N=C(\C)c1cc(F)c(F)cc1CC(F)(F)F [compound 406] | 97 | 30 | 67 | 23
CNC(=O)/C(=N/OC)c1cccc(C)c1CO/N=C(\C)c1ccc(Cc2ccccc2)cc1C(F)(F)F [compound 407] | 12 | 6 | 17 | 4
CO/N=C(/C(=O)OC)c1cccc(C)c1CO/N=C(\C)c1ccc(Cc2ccccc2)cc1C(F)(F)F [compound 408] | 30 | 12 | 33 | 13
CO/N=C(/C(=O)OC)c1cccc(C)c1CO/N=C(\C)c1cc(F)c(F)cc1C(F)(F)F [compound 409] | 77 | 40 | 83 | 73
CNC(=O)/C(=N/OC)c1cccc(C)c1CO/N=C(\C)c1cc(F)c(F)cc1C(F)(F)F [compound 410] | 9 | 0 | 35 | 1
CNC(=O)/C(=N/OC)c1cccc(C)c1CO/N=C(\C)c1ccc(Cl)c(F)c1CC(F)(F)F [compound 412] | 47 | 6 | 40 | 6
CNC(=O)/C(=N/OC)c1cccc(C)c1CO/N=C(\C)c1ccc(-c2ccccc2)cc1C(F)(F)F [compound 413] | 40 | 15 | 33 | 15
CO/N=C(/C(=O)OC)c1cccc(C)c1CO/N=C(\C)c1ccc(-c2ccccc2)cc1C(F)(F)F [compound 414] | 53 | 9 | 53 | 15
CNC(=O)/C(=N/OC)c1cccc(C)c1CO/N=C(\C)c1ccc(/C(C)=N\OC)cc1OC(F)(F)F [compound 415] | 47 | 5 | 67 | 11
CO/N=C(/C(=O)OC)c1cccc(C)c1CO/N=C(\C)c1ccc(Cc2ccccc2)cc1OC(F)(F)F [compound 416] | 57 | 27 | 67 | 25
CO/N=C(/C)c1ccc(/C(C)=N/OCc2c(C)cccc2/C(=N\OC)C(=O)OC)c(C(F)(F)F)c1 [compound 417] | 35 | 18 | 63 | 22
CO/N=C(/C)c1ccc(/C(C)=N/OCc2c(C)cccc2/C(=N\OC)C(=O)OC)c(OC(F)(F)F)c1 [compound 418] | 70 | 33 | 73 | 57
CNC(=O)/C(=N/OC)c1cccc(C)c1CO/N=C(\C)c1ccc(Cc2ccccc2)cc1OC(F)(F)F [compound 419] | 40 | 18 | 60 | 12
CNC(=O)/C(=N/OC)c1cccc(C)c1CO/N=C(\C)c1ccc(/C(C)=N\OC)cc1C(F)(F)F [compound 420] | 8 | 0 | 12 | 1
CO/N=C(/C(=O)OC)c1cccc(C)c1CO/N=C(\C)c1cccc(Cl)c1C(F)(F)F [compound 421] | 100 | 33 | 87 | 57
CNC(=O)/C(=N/OC)c1cccc(C)c1CO/N=C(\C)c1cccc(Cl)c1C(F)(F)F [compound 422] | 30 | 0 | 32 | 2
CO/N=C(/C(=O)OC)c1cccc(C)c1CO/N=C(\C)c1ccc(C#N)cc1C(F)(F)F [compound 423] | 100 | 57 | 93 | 53
CNC(=O)/C(=N/OC)c1cccc(C)c1CO/N=C(\C)c1ccc(C#N)cc1C(F)(F)F [compound 424] | 100 | 27 | 97 | 50
